Test [1] has as its system breast cancer cell line MDA-MB-231. Briefly: Anti-proliferative activity in breast cancer cell line MDA-MB-231. The format is cell-based. The following applies: MDA-MB-231 cell line. The text has this:
Anti-proliferative activity against breast cancer cell line MDA-MB-231 was investigated using the compounds synthesized through the above Examples 1 to 4.

Test [2] has as its system cervical cancer cell line HeLa. Briefly: Anti-proliferative activity in HeLa cell line. Particulars: Homo sapiens. The format is cell-based.
Test [3] deals with non-small cell lung cancer cell line H1975. Briefly: Anti-proliferative activity in H1975 cell line. The format is cell-based. The following applies: Homo sapiens, NCI-H1975.
For test [4], the system named is lung cancer cell line A549. Nature of the test: Anti-proliferative activity in A549 cell line. The following applies: Homo sapiens. The format is cell-based.
Test [5] has as its system SH-SY5Y cells. Briefly: Soft agar colony formation assay. In kind it is cell-based, human. Particulars: cultured 1-2 weeks. Here is the method: Anchorage-independent cell growth is a characteristic of cell carcinogenesis and indicates the ability of transformed cells to grow independently of a solid surface. The soft agar colony formation assay is a widely used method to measure the capability of anchorage-independent cell growth in vitro. Thus, the suppressive effect of Compound 9b on Anchorage-independent cell growth by soft agar colony formation assay.
SH-SY5Y cells were seeded in a 6-well plate with 1.2% agar (4×10^5 cells/well) and Compound 9b was added at concentrations of 1 μM, 3 μM and 5 μM and cultured for 1-2 weeks. DMSO (0.5%) was used as a negative control. After incubation, colonies were stained using by 0.05% crystal violet for 10 minutes. The colonies were washed by 3rd distilled water and captured.

Test [6] relates to human neuroblastoma cell line SH-SY5Y. Briefly: Anti-proliferative activity in SH-SY5Y cell line. The following applies: half maximal growth inhibition concentration, after 72 hours. The format is cell-based. Here is the method:
Anti-proliferative activity against human neuroblastoma cell line SH-SY5Y, an in vitro model of human malignant metastatic neuroblastoma, was investigated using the compounds synthesized through the above Examples 1 to 4.
SH-SY5Y cells were cultured in DMEM (Dulbecco's Modified Eagle's Media) with L-glutamine supplemented with […] of streptomycin, 100 units/mL of penicillin and 10% fetal bovine serum (FBS). The cells were grown to confluence in a humidified atmosphere (37° C., 5% CO2).

Usually GI50 stands for the concentration at which growth is held to half of that of the control. A high value points to lower sensitivity of the cells.

Bounds are passed on as bounds.

`O=C(NO)c1ccc(-c2nc3ccccc3[nH]2)cc1` [Compound 5, 4-(1H-benzo[d]imidazol-2-yl)-N-hydroxybenzamide]: the GI50 in test [1] (Homo sapiens) worked out at 15.6 µM.
On the same count and under the same terms, for `Cn1c(-c2ccc(C(=O)NO)cc2)nc2ccccc21` [Compound 6a, N-hydroxy-4-(1-methyl-1H-benzo[d]imidazol-2-yl)benzamide] the value was 40.3 µM; for `CCn1c(-c2ccc(C(=O)NO)cc2)nc2ccccc21` [Compound 6b, 4-(1-ethyl-1H-benzo[d]imidazol-2-yl)-N-hydroxybenzamide], 15.6 µM.
On the same count and under the same terms, for `CCCn1c(-c2ccc(C(=O)NO)cc2)nc2ccccc21` [Compound 6c, N-hydroxy-4-(1-propyl-1H-benzo[d]imidazol-2-yl)benzamide] the value was 44.6 µM; for `CCCCn1c(-c2ccc(C(=O)NO)cc2)nc2ccccc21` [Compound 6d, 4-(1-butyl-1H-benzo[d]imidazol-2-yl)-N-hydroxybenzamide], 35.5 µM; for `O=C(NO)c1ccc(-c2nc3ccccc3o2)cc1` [Compound 9a, 4-(benzo[d]oxazol-2-yl)-N-hydroxybenzamide], 8.31 µM.
As for `O=C(NO)c1ccc(-c2nc3ccccc3s2)cc1` [Compound 9b, 4-(benzo[d]thiazol-2-yl)-N-hydroxybenzamide], the GI50 in test [2] amounted to 13.5 µM; in test [3] it was 3.71 µM; in test [1] (Homo sapiens), 3.86 µM; in test [4] it was 15.6 µM. Further, the “ability of SH-SY5Y cells to form colonies” value in test [5] (1 μM, 3 μM and 5 μM) is recorded as “decreased in a dose-dependent manner”. Further, the “anchorage-independent cell growth of SH-SY5Y neuroblastoma” value in test [5] (3 μM) is listed as “almost completely inhibited”.
As to `O=C(NO)c1cccc(-c2nc3ccccc3[nH]2)c1` [Compound 13, 3-(1H-benzo[d]amidazol-2-yl)-N-hydroxybenzamide], the GI50 in test [6] and in test [1] was over 100 µM throughout.
`Cn1c(-c2cccc(C(=O)NO)c2)nc2ccccc21` [Compound 14a, N-hydroxy-3-(1-methyl-1H-benzo[d]imidazol-2-yl)benzamide]: the GI50 in test [1] (Homo sapiens) was over 100 µM.
On the same count and under the same terms, for `CCn1c(-c2cccc(C(=O)NO)c2)nc2ccccc21` [Compound 14b, 3-(1-Ethyl-1H-benzo[d]imidazol-2-yl)-N-hydroxybenzamide] the value was over 100 µM.
In test [1] (Homo sapiens), `CCCn1c(-c2cccc(C(=O)NO)c2)nc2ccccc21` [Compound 14c, N-hydroxy-3-(1-propyl-1H-benzo[d]imidazol-2-yl)benzamide] came in with a GI50 of 62.1 µM.
For `CCCCn1c(-c2cccc(C(=O)NO)c2)nc2ccccc21` [Compound 14d, 3-(1-Butyl-1H-benzo[d]imidazol-2-yl)-N-hydroxybenzamide], the GI50 in test [1] (Homo sapiens) turned out to be 60.8 µM.
The same measure, in the same setting: the value for `O=C(NO)c1cccc(-c2nc3ccccc3o2)c1` [Compound 17a, 3-(Benzo[d]oxazol-2-yl)-N-hydroxybenzamide] was 47.9 µM.
On the same count and under the same terms, the value for `O=C(NO)c1cccc(-c2nc3ccccc3s2)c1` [Compound 17b, 3-(benzo[d]thiazol-2-yl)-N-hydroxybenzamide] was 23.1 µM.
Regarding `O=C(CCCCCCC(=O)Nc1ccccc1)NO` [SAHA, reference compound], the GI50 in test [6] was determined as 2.9 µM; in test [1], 3.16 µM.

For the origin of these results see US12098134B2, “Benzo-heterocyclic compound and composition for preventing or treating cancer disease, containing same as active ingredient” (INDUSTRY ACADEMIC COOPERATION FOUNDATION KEIMYUNG UNIVERSITY, priority 2018, dated 2024).
